The term MIC denotes the least concentration at which growth counts as inhibited. The low end stands for greater potency, the high end for weaker potency.

From DBAASP come the findings set out here.

Molecules are shown by their SMILES. Converted amounts (≈) assume the structure as drawn.

Test systems include Escherichia coli BL21; Klebsiella pneumoniae; Acinetobacter baumannii; Enterococcus faecium; Streptococcus pneumoniae; Pseudomonas aeruginosa.
Common to all, as to assay: ≥ marks a high value that may be exact or a test limit, other limits are often not marked, values filed in µg/mL are converted to µM
In assay [1] the test system is Enterococcus faecium ATCC 700221.
For assay [2], the system named is Pseudomonas aeruginosa ATCC 27853.
Assay [3] deals with Staphylococcus aureus ATCC 33591.
For assay [4], the system named is Escherichia coli ATCC 25922.
Assay [5] concerns Listeria monocytogenes EGD.
The test system of assay [6] is Staphylococcus aureus ATCC 25923.
In assay [7] the test system is Staphylococcus aureus USA 300.
The test system of assay [8] is Streptococcus pyogenes M1T1 5448.
The subject of assay [9] is Pseudomonas aeruginosa PAO1.
Assay [10] relates to Shigella dysenteriae ATCC 9752.
The test system of assay [11] is Staphylococcus aureus ATCC 6538P.
Assay [12] relates to Staphylococcus epidermidis ATCC 12228.
Assay [13] relates to Bacillus subtilis ATCC 6633.
Assay [14] concerns Salmonella enterica subsp. enterica serovar Typhimurium ATCC 14028.
Assay [15] relates to Klebsiella pneumoniae ATCC 10031.
Assay [16] relates to Micrococcus luteus ATCC 10240.
Assay [17] has as its system Batrachochytrium dendrobatidis JEL-197.
The test system of assay [18] is Staphylococcus aureus ATCC 29231.
The test system of assay [19] is Acinetobacter baumannii ATCC 7978.
The subject of assay [20] is Klebsiella pneumoniae WGLW2.
In assay [21] the test system is Candida albicans ATCC 10231.
In assay [22] the test system is Klebsiella aerogenes ATCC 13048.
Assay [23] has as its system Staphylococcus aureus ATCC 43300.

Turning to `CC[C@H](C)[C@H](NC(=O)[C@H](CCCCN)NC(=O)[C@H](CCCCN)NC(=O)[C@H](CC(C)C)NC(=O)[C@@H](NC(=O)[C@H](CCCCN)NC(=O)[C@H](CCCCN)NC(=O)[C@@H](NC(=O)[C@@H](NC(=O)[C@H](CC(=O)O)NC(=O)[C@H](Cc1ccccc1)NC(=O)[C@H](CC(C)C)NC(=O)CN)C(C)C)[C@@H](C)CC)C(C)C)C(=O)NCC(=O)NCC(=O)N[C@@H](CC(C)C)C(N)=O` [GLFDVIKKVLKKIGGL], the MIC in assay [1] was 6.3 µM (≈ 10.9 µg/mL); in assay [2] it was 50 µM (≈ 86.4 µg/mL); in assay [3], 12.5 µM (≈ 21.6 µg/mL); in assay [4] it was 6.3 µM (≈ 10.9 µg/mL).

On to `CC(C)C[C@H](NC(=O)[C@H](CC(C)C)NC(=O)[C@H](CCCCN)NC(=O)[C@@H](NC(=O)[C@@H](NC(=O)[C@H](CO)NC(=O)[C@H](CCCCN)NC(=O)[C@H](Cc1ccccc1)NC(=O)[C@@H](NC(=O)[C@@H](N)CCCCN)C(C)C)C(C)C)C(C)C)C(=O)N[C@@H](CCC(=O)O)C(=O)N[C@@H](CCCCN)C(=O)N[C@H](C(=O)N[C@H](C(=O)N[C@@H](CC(C)C)C(=O)N[C@@H](CCCCN)C(=O)N[C@@H](CCCCN)C(=O)N[C@@H](Cc1ccccc1)C(=O)N[C@@H](CO)C(=O)N[C@@H](CCCCN)C(N)=O)C(C)C)[C@@H](C)O` [KVFKSVVKLLEKTVLKKFSK], for which the MIC is no less than 32 µM in assay [5], 32 µM (≈ 75.2 µg/mL) in [2], 64 µM (≈ 150 µg/mL) in [6] and 64 µM (≈ 150 µg/mL) in assay [4].

Turning to `CC[C@H](C)[C@H](NC(=O)[C@H](CO)NC(=O)[C@H](CCC(=O)O)NC(=O)[C@H](CCCN=C(N)N)NC(=O)CNC(=O)[C@H](C)N)C(=O)N[C@@H](CCCCN)C(=O)N[C@@H](C)C(=O)N[C@@H](Cc1ccc(O)cc1)C(=O)N[C@@H](CC(C)C)C(=O)N[C@@H](CCCCN)C(=O)N[C@@H](CCCCN)C(=O)N[C@@H](CCC(=O)O)C(=O)N[C@H](C(=O)N[C@@H](CCCCN)C(=O)N[C@@H](CCCCN)C(=O)N[C@@H](CCCCN)C(=O)N[C@@H](Cc1c[nH]c2ccccc12)C(=O)N[C@@H](CCCCN)C(=O)N[C@@H](CCCN=C(N)N)C(=O)N[C@@H](C)C(=O)N[C@H](C(=O)N[C@H](C(=O)N[C@@H](C)C(=O)N[C@@H](Cc1c[nH]c2ccccc12)C(=O)O)[C@@H](C)CC)C(C)C)[C@@H](C)CC` [AGRESIKAYLKKEIKKKWKRAVIAW], the MIC was no less than 128 µM in [7], 4 µM (≈ 12 µg/mL) against Escherichia coli BL21, 16 µM (≈ 48 µg/mL) in assay [8] and 16 µM (≈ 48 µg/mL) in assay [9].

As to `CC(=O)N[C@@H](CCCCN)C(=O)N[C@@H](C)C(=O)N[C@@H](C)C(=O)N[C@@H](CCCCN)C(=O)N[C@@H](C)C(=O)N[C@@H](C)C(=O)N[C@@H](CCCCN)C(=O)N[C@@H](CCCCN)C(=O)N[C@@H](C)C(=O)N[C@@H](C)C(=O)N[C@@H](CCCCN)C(=O)N[C@@H](C)C(=O)N[C@@H](C)C(=O)N[C@@H](Cc1c[nH]c2ccccc12)C(=O)N[C@@H](CCCCN)C(N)=O` [KAAKAAKKAAKAAWK], the MIC was no less than 130 µM in [10]; no less than 130 µM in [11]; 130 µM (≈ 205 µg/mL) in [12]; no less than 130 µM in assay [13]; 130 µM (≈ 205 µg/mL) in [14]; no less than 130 µM in assay [15]. Moreover, the MIC in [2] and in [4] was 130 µM (≈ 205 µg/mL) throughout.

Regarding `CC(C)C[C@H](NC(=O)[C@H](Cc1c[nH]c2ccccc12)NC(=O)CNC(=O)[C@H](CC(C)C)NC(=O)[C@@H](N)Cc1ccccc1)C(=O)N[C@@H](Cc1ccccc1)C(=O)N[C@@H](CCCCN)C(=O)N[C@@H](Cc1c[nH]c2ccccc12)C(=O)N[C@@H](C)C(=O)N[C@@H](CO)C(=O)N[C@@H](CCCCN)C(N)=O` [FLGWLFKWASK], the minimum inhibitory concentration (MIC) in assay [10] was determined as 18.1 µM (≈ 25 µg/mL); in assay [11] it was 18.1 µM (≈ 25 µg/mL); in assay [12], 36.2 µM (≈ 50 µg/mL); in [13] it was 18.1 µM (≈ 25 µg/mL); in assay [14] it was 145 µM (≈ 200 µg/mL); in assay [16], 9.04 µM (≈ 12.5 µg/mL). Also, the MIC is no less than 36.2 µM in [15], 145 µM (≈ 200 µg/mL) in assay [2] and 36.2 µM (≈ 50 µg/mL) in assay [4].

`CC[C@H](C)[C@H](NC(=O)[C@H](CCCCN)NC(=O)CNC(=O)[C@H](Cc1ccccc1)NC(=O)[C@H](CC(C)C)NC(=O)[C@@H](N)CC(C)C)C(=O)N[C@H](C(=O)N[C@@H](CO)C(=O)N[C@@H](CCCN=C(N)N)C(=O)N[C@@H](CC(C)C)C(=O)N[C@@H](CC(C)C)C(=O)NCC(=O)N[C@@H](CC(N)=O)C(=O)O)[C@@H](C)CC` [LLFGKIISRLLGN]: in assay [17], the MIC is no less than 250 µM.

In the case of `CC[C@H](C)[C@H](NC(=O)[C@H](CCCCN)NC(=O)[C@H](CCCCN)NC(=O)[C@@H](N)CC(C)C)C(=O)NCC(=O)N[C@@H](CCCCN)C(=O)N[C@@H](CCCCN)C(=O)N[C@H](C(=O)N[C@@H](Cc1c[nH]c2ccccc12)C(=O)N[C@@H](CCCN=C(N)N)C(=O)N[C@H](C(=O)NCC(=O)N[C@@H](Cc1c[nH]c2ccccc12)C(=O)N[C@@H](CC(N)=O)C(=O)N[C@@H](Cc1c[nH]c2ccccc12)C(=O)N[C@@H](CCCN=C(N)N)C(=O)O)C(C)C)[C@@H](C)CC` [LKKIGKKIWRVGWNWR], the MIC in assay [18] is no less than 61.9 µM; in [19] it was 16.1 µM (≈ 33.4 µg/mL); in assay [20], no less than 32.3 µM; in assay [21], 61.9 µM (≈ 128 µg/mL); in assay [22], no less than 61.9 µM.

As to `CC[C@H](C)[C@H](NC(=O)[C@H](CCCCN)NC(=O)[C@H](CCCCN)NC(=O)CNC(=O)[C@H](CCC(=O)O)NC(=O)[C@H](CCC(N)=O)NC(=O)[C@@H](NC(=O)[C@@H](NC(=O)[C@H](CCCCN)NC(=O)[C@H](CCCCN)NC(=O)[C@H](CC(C)C)NC(=O)[C@H](CCCN=C(N)N)NC(=O)[C@H](CCC(N)=O)NC(=O)[C@H](Cc1ccccc1)NC(=O)[C@@H](NC(=O)[C@H](CCCCN)NC(=O)[C@H](CCC(=O)O)NC(=O)[C@H](CCCCN)NC(=O)CNC(=O)[C@H](C)N)[C@@H](C)CC)[C@@H](C)O)[C@@H](C)CC)C(=O)N[C@@H](C)C(=O)N[C@@H](CCCCN)C(=O)N[C@@H](CCCN=C(N)N)C(=O)N[C@@H](C)C(=O)N[C@@H](Cc1c[nH]c2ccccc12)C(=O)O` [AGKEKIFQRLKKTIQEGKKIAKRAW], the MIC in assay [7] was 4 µM (≈ 11.8 µg/mL); against Escherichia coli BL21 it was 16 µM (≈ 47.3 µg/mL); in assay [8], no less than 128 µM; in [9], 64 µM (≈ 189 µg/mL).

Turning to `CC[C@H](C)[C@H](NC(=O)[C@H](Cc1cnc[nH]1)NC(=O)CNC(=O)CN)C(=O)N[C@@H](CCCN=C(N)N)C(=O)N[C@@H](CCCN=C(N)N)C(=O)N[C@H](C(=O)N[C@H](C(=O)N[C@@H](CCCN=C(N)N)C(=O)N[C@@H](CCCCN)C(=O)N[C@H](C(=O)N[C@H](C(=O)N[C@@H](Cc1cnc[nH]1)C(=O)N[C@H](C(=O)N[C@H](C(=O)N[C@@H](CCCCN)C(=O)N[C@@H](CCCCN)C(N)=O)[C@@H](C)CC)[C@@H](C)CC)[C@@H](C)CC)[C@@H](C)CC)[C@@H](C)CC)[C@@H](C)CC` [GGHIRRIIRKIIHIIKK], the MIC against Klebsiella pneumoniae is 16 µM (≈ 32.8 µg/mL); in assay [23], 16 µM (≈ 32.8 µg/mL); in the assay on Acinetobacter baumannii, 5.3 µM (≈ 10.9 µg/mL); in the assay with Enterococcus faecium it was 8 µM (≈ 16.4 µg/mL); against Streptococcus pneumoniae, 8 µM (≈ 16.4 µg/mL); in the assay with Pseudomonas aeruginosa, greater than 16 µM. The MIC in [4] is greater than 16 µM.
